The values that follow come from patent US7273716B2 (priority 2003, dated 2007).

What is called IC50 is the concentration that gives 50% inhibition.

For one data set, the target named is T1, GS-7340 ester hydrolase (Homo sapiens, UniProt P10619).
T1 construct: Fresh human PBMCs are obtained from patients undergoing leukophoresis; from tissue; host or cells: human peripheral blood mononuclear cells (PBMC extract, purified by Q15, Butyl Sepharose HIC and Con A chromatography)
T1 sequence (P10619 29-326 limits assumed): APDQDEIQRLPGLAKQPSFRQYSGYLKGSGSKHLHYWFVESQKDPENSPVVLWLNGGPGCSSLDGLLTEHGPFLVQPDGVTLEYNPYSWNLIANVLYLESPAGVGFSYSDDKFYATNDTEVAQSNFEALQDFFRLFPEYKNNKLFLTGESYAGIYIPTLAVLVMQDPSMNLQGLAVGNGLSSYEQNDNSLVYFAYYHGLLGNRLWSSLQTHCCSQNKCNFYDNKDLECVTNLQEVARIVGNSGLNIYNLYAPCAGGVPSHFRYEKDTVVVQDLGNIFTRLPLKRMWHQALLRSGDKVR
T1 sequence (P10619 327-480 limits assumed): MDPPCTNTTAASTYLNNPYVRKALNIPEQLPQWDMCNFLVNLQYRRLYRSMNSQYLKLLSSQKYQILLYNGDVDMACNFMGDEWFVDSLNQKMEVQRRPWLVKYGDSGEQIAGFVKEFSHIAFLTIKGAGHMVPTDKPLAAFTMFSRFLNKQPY
Nature of the data set: biochemical.

In data set [1] the test system is Cat A+ and Cat A- human primary fibroblasts. The data set can be described thus: Metabolism of acyclic nucleotide phosphonate prodrugs in Cat A+/- fibroblasts. The following applies: 10 μM 14C-labeled Compound K, 37° C., 15-240 min.

Turning to `O=c1oc(Cl)c(Cl)c2ccccc12` [3,4-dichloroisocoumarin, 3,4 dichloroisocoumarin], the half-inhibitory concentration (IC50) at GS-7340 ester hydrolase is 500 nM.

For the molecule `C=C(OC(C)C)[C@H](C)N[P@](=O)(CO[C@H](C)Cn1cnc2c(C)ncnc21)Oc1ccccc1` [Compound K], the “concentration of metabolites in Cat A+ control fibroblasts relative to Cat A- (galactosialidosis) fibroblasts” value in data set [1] is on record as 6-9 times.
